Measurements: US7192981B2, “3,4-dihydroxyhydrocinnamic acid derivative” (Bionutrigen Co., Ltd., priority 2005, dated 2007)

How the values were obtained:
[1] = Body weight and gross liver observation in DHH105-treated mice; assay type: in vivo, mouse
Experimental: First, the effect of DHH105 on the non-fasting blood glucose level in ob/ob mice, an animal model of type 2 diabetes, was examined in vivo. […] DHH105 was dissolved in DMSO and emulsified in olive oil (1:50 v/v). DHH105, at a dose of 150 mg/kg body weight (b.w.) in 100 μl, was injected intraperitoneally (i.p.) every day into diabetic ob/ob mice (blood glucose level>230 mg/dl) and STZ-treated diabetic C57BL/6 mice (blood glucose level>300 mg/dl). Control mice received the same amount of olive oil without DHH105. Blood glucose levels were measured with a glucometer (One Touch Ultra, Lifescan, Milpitas, Calif.) every morning between 9:00–10:00 a.m. just before injection of DHH105.

GLUT4 = GLUT4 translocation, subcellular fractionation and western blot; assay type: cell-based, rat; details: 500 μM, 4 h, vs untreated control adipocytes
Experimental: Adipocytes treated with DHH105 for 4 h or insulin for 30 min were washed three times with HES buffer [8 mM HEPES, 250 mM sucrose, 2 mM EDTA, 20 mM NaF, 50 mM NaVO4, 50 mM sodium pyrophosphate, protease inhibitor cocktail (Sigma), and phosphatase inhibitor cocktail (Sigma), pH 7.4]. Adipocytes were homogenized in 20 ml HES buffer with a potter Elvehjem teflon pestle (15 strokes). Homogenates were centrifuged at 1000 g for 10 min and the supernatant was centrifuged again at 16,000 g for 20 min. The resulting pellet was resuspended in 500 μl HES buffer, carefully laid on a discontinuous sucrose gradient (density top to bottom: 1.0592, 1.1270, 1.1533, 1.1764, 1.2575) and centrifuged at 110,000 g for 70 min. The plasma membrane fraction was obtained from the gradient density of 1.1533, diluted in 50 ml HES buffer, and centrifuged at 16,000 g for 20 min. The pellet (plasma membrane fraction) was resuspended in 500 μl HES buffer and stored at −70° C. To obtain the microsomal membrane fraction, the supernatant from the second centrifugation was centrifuged at 220,000 g for 70 min. The pellet was washed, resuspended in 500 μl HES buffer and stored at −70° C. The protein content of each fraction was measured by the Bradford method. […] The membranes were washed and the immunoreactive proteins were detected with an enhanced chemoluminescence western blot detection kit (Amersham Pharmacia Biotech).

insulin receptor = molecular target: T1, insulin receptor (Rattus norvegicus, UniProt P15127); assay: Insulin binding assay ([125I]-insulin binding to adipocytes); details: [125I]-insulin 0.1 ng/ml, 2 h
T1 construct: endogenous in cells; host or cells: isolated primary adipocytes (rat)
T1 sequence (P15127 27-759 limits assumed): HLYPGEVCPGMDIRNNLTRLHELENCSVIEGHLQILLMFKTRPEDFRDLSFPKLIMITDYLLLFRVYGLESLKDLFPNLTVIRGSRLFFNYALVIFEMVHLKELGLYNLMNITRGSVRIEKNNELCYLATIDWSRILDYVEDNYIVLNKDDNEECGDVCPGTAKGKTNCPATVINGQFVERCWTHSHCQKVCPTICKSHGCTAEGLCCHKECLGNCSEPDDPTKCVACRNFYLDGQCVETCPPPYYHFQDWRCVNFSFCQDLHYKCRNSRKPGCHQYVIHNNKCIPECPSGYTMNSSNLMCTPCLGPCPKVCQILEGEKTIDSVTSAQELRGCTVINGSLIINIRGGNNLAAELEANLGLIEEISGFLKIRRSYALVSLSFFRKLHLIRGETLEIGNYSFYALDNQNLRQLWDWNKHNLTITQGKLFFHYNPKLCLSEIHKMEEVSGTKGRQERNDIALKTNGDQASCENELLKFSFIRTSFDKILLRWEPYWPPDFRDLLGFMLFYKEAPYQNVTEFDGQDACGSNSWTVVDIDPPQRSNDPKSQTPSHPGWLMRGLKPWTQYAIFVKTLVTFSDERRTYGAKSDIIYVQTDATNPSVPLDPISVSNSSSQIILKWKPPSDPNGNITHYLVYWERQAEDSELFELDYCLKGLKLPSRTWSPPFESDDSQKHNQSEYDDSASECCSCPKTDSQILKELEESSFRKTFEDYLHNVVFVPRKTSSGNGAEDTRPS
T1 sequence (P15127 764-1383 partner limits assumed): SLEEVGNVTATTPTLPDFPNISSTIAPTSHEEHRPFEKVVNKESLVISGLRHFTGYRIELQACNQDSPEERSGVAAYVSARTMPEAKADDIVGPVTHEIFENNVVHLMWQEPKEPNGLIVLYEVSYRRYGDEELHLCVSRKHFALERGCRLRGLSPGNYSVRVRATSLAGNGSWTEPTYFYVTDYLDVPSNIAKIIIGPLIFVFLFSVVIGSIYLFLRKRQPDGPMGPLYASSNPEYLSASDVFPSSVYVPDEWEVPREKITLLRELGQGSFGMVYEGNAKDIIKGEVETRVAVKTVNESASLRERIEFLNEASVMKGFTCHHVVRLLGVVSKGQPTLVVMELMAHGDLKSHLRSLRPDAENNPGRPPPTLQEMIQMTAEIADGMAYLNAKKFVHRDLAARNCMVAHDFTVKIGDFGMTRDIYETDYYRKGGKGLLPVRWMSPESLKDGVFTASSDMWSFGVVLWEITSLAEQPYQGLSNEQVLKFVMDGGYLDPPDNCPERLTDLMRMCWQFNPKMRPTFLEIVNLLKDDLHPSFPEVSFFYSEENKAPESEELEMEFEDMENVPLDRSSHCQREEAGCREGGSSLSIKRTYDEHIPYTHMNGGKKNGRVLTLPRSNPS
Experimental: To examine whether DHH105 binds to the insulin receptor and activates the insulin signal transduction pathway, [^125I]-insulin binding to adipocytes was measured in the presence of DHH105. Isolated adipocytes were incubated in KRH buffer for 1 h to remove residual insulin. Adipocytes were then washed three times and resuspended in KRH buffer. Adipocytes (2×10^5 cells/vial) were incubated with DHH105 or insulin in the presence of [^125I]-insulin (0.1 ng/ml; Perkin-Elmer Life and Analytical Sciences, Downers Grove, Ill.) for 2 h at 16° C. in a shaking bath. To measure non-specific binding, 50 μg of unlabelled insulin (Sigma) were added to cells along with [^125I]-insulin. After incubation, adipocytes were harvested by silicon oil and the radioactivity was measured.

IRS-1 = assay: Phosphorylation of IRS-1 in adipocytes, immunoprecipitation and western blot; assay type: cell-based; details: SD rat adipocytes, DHH105 2 h, vs untreated control
Experimental: Adipocytes treated with DHH105 for 2 h or insulin for 10 min were homogenized in 5 ml lysis buffer (20 mM Tris, pH 7.4, 1% SDS, 10% glycerol, 150 mM NaCl, 2 mM EDTA, 20 mM NaF, 1 mM NaVO4, 2 mM sodium pyrophosphate, protease inhibitor cocktail, and phosphatase inhibitor cocktail) with a teflon pestle (15 strokes). Homogenized adipocytes were sonicated for 3 min and solubilized for 30 min. The homogenate was centrifuged at 3,000 g for 10 min at 4° C. The protein concentration of the lysate was determined by the Bradford method. After dilution (1 μg/μl protein concentration), the lysates were incubated with anti-insulin receptor-β (IR-β) antibody (Upstate Biotech, Charlottesville, Va.) or anti-IRS-1 antibody (Upstate Biotech) overnight at 4° C. Protein A Sepharose beads (100 μl, Amersham Pharmacia Biotech) were added and the mixture was gently rocked for 2 h at 4° C. […] The membranes were washed and the immunoreactive proteins were detected with an enhanced chemoluminescence western blot detection kit (Amersham Pharmacia Biotech). To examine whether DHH105 treatment increases autophosphorylation of the insulin receptor and its tyrosine kinase activity, the phosphorylation of IR-β and IRS-1 were measured by immunoprecipitation and western blot in DHH105-treated adipocytes from SD rats. […]

- amount of GLUT4 in the microsomal membrane fraction (GLUT4): decreased
- binding of [125I]-insulin to adipocytes, DHH105 together with insulin (insulin receptor; 500 μM DHH105 plus insulin): further inhibited
- binding of [125I]-insulin to adipocytes (insulin receptor; 16° C.): inhibited
SMILES: O=C(CCc1ccc(O)c(O)c1)OCc1cccc2ccccc12 [DHH105, 3,4-dihydroxyhydrocinnamic acid naphthalene methyl ester]
- gross lesions of the liver ([1]; DHH105-treated mice): no gross lesions
- body weight, treated vs untreated mice ([1]; DHH105-treated vs untreated mice): no differences
- immunoreactive GLUT4 in the plasma membrane fraction (GLUT4): increased
- phosphorylation of IRS-1 (IRS-1): increased
